# From PMC4203401 (Journal of Medicinal Chemistry, 2014)
# What was measured:
# [1] = target: HIV-1 RT-associated RNase H activity (Human immunodeficiency virus type 1 group M subtype B, UniProt P04585); assay: HIV-1 RT RNase H inhibition; type: biochemical
# [2] = target: HIV-1 IN (rIN), strand transfer (Human immunodeficiency virus type 1 group M subtype B, UniProt P04585); assay: HIV-1 IN gel-based assay, strand transfer; type: biochemical; conditions: IC50 for strand transfer
# [3] = target: polymerase function of RT (Human immunodeficiency virus type 1 group M subtype B, UniProt P04585); assay: HIV-1 RT polymerase inhibition; type: biochemical
# HIV-1(IIIB) = assay: HIV-1 replication inhibition in HeLa-CD4-LTR-β-gal cells; type: cell-based
# HTLV-IIIB = conditions: read-out: EC50, originally reported; HTLV-IIIB-based infection assay; ref 19b; cited from earlier work
IC50 [2],Inhibition of polymerase function of RT (inactive up to) [3],SMILES,Ability to inhibit RNase H [1],also measured
–,–,"Cc1nnc(C(=O)NC(C)(C)c2nc(C(=O)NCc3ccc(F)cc3)c(O)c(=O)n2C)o1 [Compound 2, raltegravir]",inactive,–
–,–,"C[C@@H]1CCO[C@H]2Cn3cc(C(=O)NCc4ccc(F)cc4F)c(=O)c(O)c3C(=O)N12 [Compound 3, dolutegravir]",inactive,–
< 100 nM,> 40 µM,"O=C(O)/C(O)=C/C(=O)c1cn(Cc2ccc(F)cc2)c2cc(N3CCOCC3)ccc2c1=O [Compound 12f, 4-[1-[(4-Fluorophenyl)methyl]-7-(morpholin-4-yl)-4-(1H)-quinolinon-3-yl]-2-hydroxy-4-oxo-2-butenoic Acid]",–,–
–,–,"CCOC(=O)/C(O)=C/C(=O)c1cn(Cc2ccc(F)cc2)c2cc(N(C)C)ccc2c1=O [Compound 11g, 4-[1-[(4-Fluorophenyl)methyl]-7-(dimethylamino)-4-(1H)-quinolinon-3-yl]-2-hydroxy-4-oxo-2-butenoic Acid Ethyl Ester]",–,"SI, selectivity index (CC50/EC50) (HIV-1(IIIB); CC50/EC50 in HeLa cells): 20"
–,> 40 µM,"O=C(O)/C(O)=C/C(=O)c1cn(Cc2ccc(F)cc2)c2cc(N3CCCC3)ccc2c1=O [Compound 7b, reference compound]",–,EC50 (HTLV-IIIB): 170 nM
< 100 nM,> 40 µM,"O=C(O)/C(O)=C/C(=O)c1cn(Cc2ccc(F)cc2)c2cc(N3CCN(CCCCl)CC3)ccc2c1=O [Compound 12i, 4-[1-[(4-Fluorophenyl)methyl]-7-[N-(3-chloroprop-1-yl)piperazin-1-yl]-4-(1H)-quinolinon-3-yl]-2-hydroxy-4-oxo-2-butenoic Acid]",–,"Block of HIV-1 replication (HIV-1(IIIB); HeLa-CD4-LTR-β-gal cells, HIV-1(IIIB)): unable to block replication"
